What was measured:
human IFN-γ+CD8+ T cells = assay: Coculture of human MoDCs with autologous T cells; assay type: cell-based; conditions: VitE-treated vs vehicle-treated autologous MoDCs
Description: FIG. 2A: Percentage of human IFN-γ^+CD8^+ T cells in CD8^+ T cells in coculture with vehicle or VitE-treated autologous MoDCs (n=3). FIG. 2B: Representative flow cytometric analysis and quantification of antigen-specific OT-1 T cell proliferation stimulated with OVA-loaded mouse BMDCs that were treated with vehicle or VitE at day 3. FIG. 2C: Tumor growth curves of orthotopic EMT6 tumor-bearing mice treated with vehicle (Ctrl), Vitamin E (VitE), or VitE plus Cyt c (10 mg/kg. i.v, every other day starting on day 3) to deplete DCs (n=8/group). The statistical significance is defined by P-value: *P<0.05, **P<0.01, ***P<0.001. ****P<0.0001. Human leukocyte concentrate (buffy coat) was collected from healthy blood donor volunteers by MD Anderson Blood Donor Center. Written informed consent was obtained from all participating blood donors and the use of anonymized leftover specimens for scientific purposes was approved by the Ethics Committee of the MD Anderson Cancer Center. For the generation of monocyte-derived dendritic cells (MoDCs), peripheral blood of healthy individuals was applied to a Ficoll gradient (BD), and mononuclear cells were freshly isolated and cultured in the dish in a humidified incubator for 1 hour to let monocytes adhere. After removing the medium with non-adherent cells, the adherent monocytes were collected through vigorous pipetting. […]

Scarb1-/-DCs = assay: BMDCs from Scarb1-/- versus wild-type mice; assay type: cell-based, mouse
Text: VitE can enter enterocytes via the SCARB1 receptor, and SCARB1 facilitates the uptake of cholesteryl esters from high-density lipoproteins. […] To determine whether SCARB1 is required for VitE-induced DC activation, we generated BMDCs from Scarb1-/-versus wild-type mice. […] Taken together, VitE enters DCs via SCARB1 and binds SHP1 to inhibit pSHP1, leading to DC activation, which increases antitumor T-cell immunity (data not shown; see Yuan et al. 2022, FIG. 4I; see also U.S. Provisional Application No. 63/252,721, FIG. 4D).

H-2Kb-SIINFEKL = assay: Antigen cross-presentation: H-2Kb-SIINFEKL on OVA-loaded DCs by flow cytometry; assay type: cell-based, mouse
Text: FIG. 4A: Flow cytometric analysis and quantification of H-2Kb-SIINFEKL in OVA-loaded sgCtrl or sgPtpn6-DC2.4 cells without or with TCM treatment (n=3). FIG. 4B: FCM analysis and quantification of H-2K^b-SIINFEKL in the vehicle or VitE-treated BMDCs with or without TCM treatment (n=5). Error bars, s.e.m. ns, no significant. *P<0.05, **P<0.01. ***P<0.001. ****P<0.0001.
The most critical function of DCs is the cross-presentation of tumor antigens to T-cells (Guermonprez et al., 2002). We assessed the membrane MHC-I complexes that were loaded with intracellularly processed OVA-derived peptide (H-2Kb-SIINFEKL) on OVA-loaded DCs with VitE-treatment. […] Therefore, VitE administration enhances the activation and antigen cross-presentation function of DCs to provoke antigen-specific antitumor T-cell immunity. We quantified H-2Kb-SIINFEKL in the vehicle-or VitE-treated sgCtrl-DC2.4 or sgPtpn6-DC2.4 (n=3). […] Thus. SHP1 inhibition in DCs by VitE treatment or Ptpn6 knockout enhances antigen cross-presentation that boosts CD8+ T-cell antitumor immunity.

human iPSC-DCs = assay: Activation of human iPSC-derived DCs by flow cytometry; assay type: cell-based; conditions: vitamin E 50 μg/ml or TPI-1 1 μg/ml, 72 h, gated on CD11c+
Text: FIG. 10A: Representative high magnification photomicrographs (100×, 200×, 400×) illustrating the morphology of colonies and individual cells of fully differentiated iPSC-derived DCs (iPSC-DCs) displaying characteristic DC morphology consisting of protrusions and veils of cytoplasm at the end of the differentiation procedure (day 23) after using the differentiation protocol for the addition and withdrawal of growth factors and cytokines. FIG. 10B: Phenotypic characterization of generated human iPSC-DCs. Representative flow cytometry analysis depicting the expression of DC lineage markers by iPSC-DCs gated on the CD11c+ population. Levels of expression of individual markers are shown as red histograms, while non-specific staining by isotype controls is shown as light blue histograms. FIG. 10C: Phenotypic characterization of human iPSC-DCs after treatment with vitamin E or TPI-1 to inhibit SHP1. Representative flow cytometry analysis (left panel) and quantification (right panel) depicting the expression of indicated activity markers by iPSC-DCs gated on the CD11c+population with the treatment of vehicle, vitamin E (50 μg/ml) or TPI-1 (1 μg/ml) for 72 h.
We explored the feasibility of differentiating populations of primary DCs from iPSCs and characterized the phenotype of iPSC-DC with the pharmacological inhibition of SHP1 by vitamin E or TPI-1. […]

HY19636 KPC tumor = assay: Orthotopic HY19636 KPC PDAC tumor model; assay type: in vivo, mouse
Description: FIG. 6E: Measurement of maximal tumor diameter in HY1936 KPC tumor-bearing mice treated with gemcitabine (GEM, 25 mg/kg by i.p.) and ICT (anti-PDI/anti-CTLA4) along with vehicle or VitE (n=5). FIG. 6F: Kaplan-Meier survival curve of HY19636 KPC tumor-bearing mice treated with vehicle, GEM (gemcitabine, 25 mg/kg by i.p.), GEM+ICT (anti-PDI/anti-CTLA4) plus vehicle or VitE (n=6).
Syngeneic orthotopic PDAC tumors were established by surgical implantation. Briefly, 2,000 HY19636 KPC cells in 50 μl PBS were injected into each pancreas of the C57BL/6J mouse.
Treatments were given as single agents or in combinations with the indicated regimens for each group. VitE (D-α-Tocopherol type VI, Cat.T1539, Sigma-Aldrich) was formulated in the vehicle (10% ethanol in sterile water) and administered by oral gavage once a day at a dose of 50 mg/kg body weight (100 μl at 10 mg/ml per day), corresponding to 400 to 600 mg/day in a human weighing 60 kg, which is within the range of doses recommended for supplement and pharmacological use. VitE treatment was initiated on day 4 ending until the ending point.
For chemo combination treatment, HY19636 KPC tumor-bearing mice were treated with gemcitabine (GEM) at 25 mg/kg body weight by i.p. injection once a week from day 7 and 4T1 TNBC tumor-bearing mice were given with doxorubicin (Dox, 5 mg/kg body weight) by i.v. once a week from day 10. The chemotherapeutic doses and schedules used in this study are below or within the range of the concentrations used in the clinic after converting drug doses between species.

[1] = VitE added to GEM+ICT vs GEM+ICT+vehicle

Q: Which results are given for `Cc1c(C)c2c(c(C)c1O)CC[C@@](C)(CCC[C@H](C)CCC[C@H](C)CCCC(C)C)O2` [VitE, D-α-Tocopherol]?
A: IFNγ+CD8+ T cells in coculture (human IFN-γ+CD8+ T cells): increased autologous IFNγ+CD8+ cytotoxic T cells; pY564-SHP1 in Scarb1-/- DCs (Scarb1-/-DCs; VitE treatment, unlike wild-type DCs): failed to inhibit pY564-SHP1; proliferation of cocultured T cells (Scarb1-/-DCs; VitE-treated Scarb1-/- DCs, in contrast to wild-type DCs): did not induce proliferation of cocultured T cells; H-2Kb-SIINFEKL molecules on sgPtpn6-DC2.4 cells (H-2Kb-SIINFEKL; VitE treatment of SHP1-knockout cells): did not further increase H-2Kb-SIINFEKL molecules; H-2Kb-SIINFEKL molecules on DC2.4 cells (H-2Kb-SIINFEKL; vs vehicle-treated sgCtrl-DC2.4 cells): significantly increased H-2Kb-SIINFEKL molecules on DC2.4 cells; expression of DC activation markers on iPSC-DCs (human iPSC-DCs): increased expression of DC activation markers CD40 and CD86; survival time (HY19636 KPC tumor; [1]): prolonged the survival time; tumor growth (HY19636 KPC tumor; [1]): effectively inhibited the HY19636KPC PDAC tumor growth; ascites (HY19636 KPC tumor; VitE added to GEM+ICT, day 25): reduced tumor-induced ascites
